Assay results reported in patent US20190125753A1, “COMPOUNDS AND METHODS FOR INCREASING HEMATOPOIESIS” (University of Southern California, priority 2016, published 2019).
One block for each compound: values may come before it.

What was measured:
[1] = tested on: Wnt/β-catenin pathway; experiment: SuperTOPFLASH (STF1.1 Hek-293) Wnt/β-catenin-driven luciferase reporter; type: cell-based
Description: A. Wnt/β-Catenin Activity: The Initial SuperTOPFLASH Screen.
(§1) Hek293 cells were stably transfected with plasmid that contains multiple TCF/LEF fragments in front of Luciferase gene. Wnt/β-catenin activity was determined from luciferase expression levels. […] Briefly, stably transfected Hek-293, STFI.1 (Wnt/β-catenin-driven luciferase) and Survivin-Hek-293 (1 Kb Human survivin promoter-driven luciferase) cells were maintained in DMEM, 10% FBS, Pen/Strep with 400 μg/mL G418 or 2 μg/mL puromycin, respectively. To check the activity of ICG-001, YH249, and YH250, the cells were split into white-opaque 96-well plates at 10,000 cells per well and allowed to attach overnight. For SuperTOPLASH, the inhibitors were added to the cells and pre-incubated for 1 hour prior to stimulation with 10 mM Li Cl for 24 hours. Luciferase activity was read using BrightGlo (Promnega) luciferase substrate. For survivin/luc, the inhibitors were added to the cells and incubated for 24 hours prior to readout. To calculate IC5o values, the resulting curve was fitted to a four-parameter logistic model (4PL) using GraphPad Prism 5 software.
(§2) An endogenous human survivin 1 kb promoter was inserted before a luciferase gene. […] R1 and R2 were diversified in this study. Percent inhibition of luciferase activity was calculated according to the following equations; % inhibition of STF 1.1 reporter activity=(I−RLU(10 mM LiCl) treated/RLU(10 omM LiCl) vehicle×control)100, % inhibition of Survivin reporter activity=(1−RLUtreated/RLU vehicle control)×100. Error bars indicate the mean±SE of 3 separate experiments. Selectivity (FIG. 2H) was calculated by IC50 value for Survivin-Hek-293/IC50 value for STF 1.1.

[2] = tested on: Human survivin promoter; experiment: Survivin/luciferase reporter (Survivin-Hek-293); type: cell-based
Description: as §1
B. Survivin Expression Level: The Secondary Screen.
as §2

[3] = target: T1, p300/γ-catenin interaction (Mus musculus, UniProt B2RWS6); experiment: Co-IP of bone marrow Sca-1posit cells from treated mice (anti-p300); type: in vivo; conditions: YH250 2 mg/kg subcutaneously, 24 hrs
T1 construct: bone marrow Sca-1posit cells were isolated with Anti-Sca-1 microbeads; from tissue; host or cells: bone marrow Sca-1 positive cells of female C57/Black mice dosed in vivo
Description: (§3) YH250 was used in this study. Female C57/Black mice were administrated with either DMSO (solvent control) or YH250 (2 mg/kg) subcutaneously. 24 hrs later, bone marrow Sca-1posit cells were isolated with Anti-Sca-1 microbeads (Miltenyi Biotec, Cat#130-092-529) for co-immunoprecipitation (FIG. 4A). Cells were then lysed and incubated with either anti-CBP (A22) or anti-p300 (C20) antibodies. Then, the immunoprecipitation complex were electrophoresed and detected with antibodies to either β-catenin or γ-catenin. […] This confirms that YH250 directly disrupts the p300/catenin interaction thereby enhancing the CBP/catenin interaction in HSPCs.

[4] = target: T2, CBP/γ-catenin interaction (Mus musculus, UniProt P45481); experiment: Co-IP of bone marrow Sca-1posit cells from treated mice (anti-CBP); type: in vivo; conditions: YH250 2 mg/kg subcutaneously, 24 hrs
T2 construct: bone marrow Sca-1posit cells were isolated with Anti-Sca-1 microbeads; from tissue; host or cells: bone marrow Sca-1 positive cells of female C57/Black mice dosed in vivo
Description: as §3

[5] = tested on: R1 mESCs; conditions: Wnt dependent manner; cited from earlier work
[6] = target: T3, p300 (Mus musculus, UniProt B2RWS6); experiment: Bio-249 affinity pull-down from C2Cl2 lysates, p300 immunoblot; type: binding
T3 construct: endogenous in cells; host or cells: lysates of mouse C2C12 myoblasts
Description: YH249 and YH250 were selected from the compounds described herein for further testing. Co-immunoprecipitation (CO-IP) was performed with mouse myoblast C2Cl2 cells. Cells were treated with DMSO (control), or YH249, or YH250 for 24 hours. Cell lyses were pulled down with anti-p300 or anti-CBP antibodies, run on gel and probed with anti-β-catenin antibody. […] A biotinylated version of YH249 (Bio-249) was prepared via the propargyl amide variant. Using a biotin with a linker and a terminal azide residue, we were able to couple the biotin to the YH249 core via a 3+2 cyclization reaction to provide Bio-249. Bio-249 was incubated with lysates from C2Cl2 myoblasts, either in the presence or absence of competitor YH249 for 4 h at 4° C. and then bound to streptavidin agarose beads. After extensive washing the bound proteins were eluted and run out on an […].

[7] = tested on: mouse bone marrow cells; experiment: Colony-forming cell (CFC) assay after 4 h in vitro treatment; type: cell-based
Description: Brief (less than 24 hours) treatment of HSC with YH250 or DMSO was conducted before the CFC or CFU-S12 assay. Mouse bone marrow cells were treated with DMSO (solvent control) or YH250 for 4 hours in serum free HSC expansion medium before the cells were recovered for a colony forming assay. 7-8 Days after cell plating in methylcellulose medium (Stemcell Technologies, Methocult GF M3434, Cat#3434), colonies were scored, and the cells from each plate were recovered and counted.
In fact, they also show similar biological functions with respect to HSPC.

[8] = tested on: bone marrow cells; experiment: Brief (4 h) incubation of bone marrow cells, 14 days culture, FACS; type: cell-based, mouse; conditions: 0.5 μM 4 hrs, 14 days culture
Description: Bone marrow cells were treated with DMSO or YH250 (0.5 μM) for 4 hours, then the compound was removed and the cells cultured in QBSF-58 medium for 14 days with 10 ng/ml of SCF, TPO, Flt3 ligand, and IL-6. At the end of culture, cells were recovered and analyzed for LSK cells with FACS.
In a further study, female CD45.1 mice bone marrow cells were incubated with DMSO, or YH249 (0.5 μM) or YH250 (0.5 μM) for 4 hrs in QBSF-58 media, then 2×10^4 cells were plated in QBSF-58 medium containing SCF, TPO, Flt3 and IL-6 (10 ng/ml for each) for 14 days. Cells were then recovered from plate for FACS analysis. […] Correspondingly, there are higher LSK cells (52%, 60% and 70% respectively for DMSO, YH249 and YH250). From every 10,000 analyzed cells, LSKCD34negt cell numbers are 437, 663 and 2051 for DMSO, YH249 and YH250 treated cells, respectively.

[9] = tested on: R1 mESCs; experiment: Maintenance of mouse ES cell pluripotency, feeder free, 5 days; type: cell-based; conditions: with 50 ng/ml Wnt3a or 3 μM CHIR99021; 500 nM YH249 or 200 nM YH250, 5 days
Description: (§4) We also determined that IQ-1 indirectly, via binding to the PR72/130 subunit of PP2A, inhibited the p300/β-catenin interaction (Id). Therefore, we anticipated that YH249/250 should also maintain mESC pluripotency in a Wnt dependent manner. To test his, R1 mESCs were cultured under feeder free conditions in the presence or absence of YH249/250 for 5 days. […] Pluripotency markers, Oct4, Nanog, Sox2, SSEA-1 and ALP, were all expressed in the cells treated with Wnt3a and YH250 (FIG. 28b). Moreover, Wnt3a could be replaced with the selective GSK-3 inhibitor CHIR99021, which activates the Wnt signaling pathway (FIG. 28a, lower panel). […] In the event, similarly to ID-8, the combination of Wnt3a and YH249/250 provided morphologically undifferentiated colonies of H9 human embryonic stem cells (hESCs) without FGF and TGF (FIG. 28c). hPSC markers were detected by ALP staining and immunofluorescence (FIG. 28d). In addition to H9 cells, two other hESC lines and a human induced pluripotent stem (iPS) cell line could be also maintained undifferentiated morphology utilizing the same conditions (not shown).
Specifically, FIG. 28A-28D, show maintenance of ESC's pluripotency by YH249 and YH250. […] 28A, Typical colony morphologies of RI mouse ES cells cultured 5 days in [upper panel] 3 μM CHIR99021 and 1 μM PD0325901 (2i) medium, basal medium (2i medium without CHIR99021 and PD0325901), basal medium supplemented with 50 ng/ml Wnt3a alone, [middle panel] combination of 50 ng/ml Wnt3a and 2 μM IQ-1, 500 nM YH249 or 200 nM YH250, [lower panel] 3 μM of CHIR99021 alone, and combination of 3 μM CHIR99021 and 500 nM YH249 or 200 nM YH250. […] The blue signal (Wnt3a panels) represents DAPI nuclear staining. Bars indicate […]. […] The blue signal (Wnt3a panels) represents DAP1 nuclear staining. Scale bars indicate 100 am.

[10] = tested on: H9 human embryonic stem cells; experiment: Maintenance of human ES cell pluripotency, 5 days; type: cell-based; conditions: 25 ng/ml Wnt3a; 500 nM YH249 or 200 nM YH250, 5 days, without FGF and TGF
Description: as §4
Specifically, FIG. 28A-28D, show maintenance of ESC's pluripotency by YH249 and YH250. […] 28A, Typical colony morphologies of RI mouse ES cells cultured 5 days in [upper panel] […]

[11] = 4 hours incubation then CFC assay

T3 sequence (B2RWS6 whole entry): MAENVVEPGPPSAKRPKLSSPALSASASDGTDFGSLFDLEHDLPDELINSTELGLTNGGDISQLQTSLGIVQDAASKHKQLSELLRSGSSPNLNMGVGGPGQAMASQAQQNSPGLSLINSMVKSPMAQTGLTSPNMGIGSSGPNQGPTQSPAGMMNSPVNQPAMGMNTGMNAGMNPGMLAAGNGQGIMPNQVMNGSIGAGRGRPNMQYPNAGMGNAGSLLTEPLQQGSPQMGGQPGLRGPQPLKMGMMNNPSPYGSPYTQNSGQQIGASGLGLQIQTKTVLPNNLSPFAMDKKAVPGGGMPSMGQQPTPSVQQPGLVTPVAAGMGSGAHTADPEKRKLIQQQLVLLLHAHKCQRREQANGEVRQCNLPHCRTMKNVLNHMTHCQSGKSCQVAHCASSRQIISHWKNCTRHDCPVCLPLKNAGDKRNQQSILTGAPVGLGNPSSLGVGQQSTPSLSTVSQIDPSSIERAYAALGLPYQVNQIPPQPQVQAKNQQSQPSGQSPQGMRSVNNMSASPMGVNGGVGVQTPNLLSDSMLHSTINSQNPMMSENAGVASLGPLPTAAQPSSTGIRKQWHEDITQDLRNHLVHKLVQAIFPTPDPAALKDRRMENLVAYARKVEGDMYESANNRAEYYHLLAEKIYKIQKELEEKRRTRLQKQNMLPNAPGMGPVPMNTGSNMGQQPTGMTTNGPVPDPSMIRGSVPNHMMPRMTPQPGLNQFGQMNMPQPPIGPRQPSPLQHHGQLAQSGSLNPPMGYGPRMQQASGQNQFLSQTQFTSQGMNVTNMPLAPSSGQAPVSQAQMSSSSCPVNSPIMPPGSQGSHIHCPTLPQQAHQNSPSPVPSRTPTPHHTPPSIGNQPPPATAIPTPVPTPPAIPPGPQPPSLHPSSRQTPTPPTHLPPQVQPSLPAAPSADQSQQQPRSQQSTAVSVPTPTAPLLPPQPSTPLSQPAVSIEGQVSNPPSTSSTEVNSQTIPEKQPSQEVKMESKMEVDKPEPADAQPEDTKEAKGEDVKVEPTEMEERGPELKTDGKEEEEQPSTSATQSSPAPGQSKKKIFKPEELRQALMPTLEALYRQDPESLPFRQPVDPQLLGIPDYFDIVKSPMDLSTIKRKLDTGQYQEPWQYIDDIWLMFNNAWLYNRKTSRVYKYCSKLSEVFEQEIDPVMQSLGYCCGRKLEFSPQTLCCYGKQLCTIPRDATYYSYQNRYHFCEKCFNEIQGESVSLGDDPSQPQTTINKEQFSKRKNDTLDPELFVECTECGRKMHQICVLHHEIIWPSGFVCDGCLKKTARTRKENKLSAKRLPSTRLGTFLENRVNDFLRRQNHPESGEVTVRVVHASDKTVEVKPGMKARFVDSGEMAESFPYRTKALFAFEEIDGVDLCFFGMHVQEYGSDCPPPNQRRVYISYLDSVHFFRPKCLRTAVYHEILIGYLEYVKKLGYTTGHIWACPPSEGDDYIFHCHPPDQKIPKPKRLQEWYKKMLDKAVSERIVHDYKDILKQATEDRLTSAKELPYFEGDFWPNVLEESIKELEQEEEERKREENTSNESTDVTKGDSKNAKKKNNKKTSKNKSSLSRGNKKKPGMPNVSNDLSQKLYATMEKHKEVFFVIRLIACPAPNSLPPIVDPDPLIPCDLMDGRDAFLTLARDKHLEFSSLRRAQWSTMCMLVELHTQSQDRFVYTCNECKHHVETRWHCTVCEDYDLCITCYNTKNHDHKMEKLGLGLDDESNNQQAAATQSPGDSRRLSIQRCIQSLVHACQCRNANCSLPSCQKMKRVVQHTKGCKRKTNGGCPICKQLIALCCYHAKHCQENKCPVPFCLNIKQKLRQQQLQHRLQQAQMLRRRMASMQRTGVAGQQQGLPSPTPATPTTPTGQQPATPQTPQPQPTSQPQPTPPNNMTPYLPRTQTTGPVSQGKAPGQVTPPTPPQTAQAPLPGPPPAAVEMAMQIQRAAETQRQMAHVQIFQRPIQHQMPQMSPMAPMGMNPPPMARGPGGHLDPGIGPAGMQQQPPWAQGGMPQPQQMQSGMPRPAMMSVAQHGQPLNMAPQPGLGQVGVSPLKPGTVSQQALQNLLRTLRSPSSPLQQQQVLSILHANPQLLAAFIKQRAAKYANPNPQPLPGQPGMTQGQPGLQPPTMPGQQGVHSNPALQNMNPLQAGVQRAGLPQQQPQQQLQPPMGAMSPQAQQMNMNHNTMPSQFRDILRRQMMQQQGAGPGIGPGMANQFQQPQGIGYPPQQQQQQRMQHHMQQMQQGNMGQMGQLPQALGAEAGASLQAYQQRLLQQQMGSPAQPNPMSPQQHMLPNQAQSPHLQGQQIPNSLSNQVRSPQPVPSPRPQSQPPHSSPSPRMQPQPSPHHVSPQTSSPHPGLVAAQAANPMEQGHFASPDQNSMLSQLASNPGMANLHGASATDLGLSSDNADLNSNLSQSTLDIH
T1 sequence (B2RWS6 2-2412 limits assumed): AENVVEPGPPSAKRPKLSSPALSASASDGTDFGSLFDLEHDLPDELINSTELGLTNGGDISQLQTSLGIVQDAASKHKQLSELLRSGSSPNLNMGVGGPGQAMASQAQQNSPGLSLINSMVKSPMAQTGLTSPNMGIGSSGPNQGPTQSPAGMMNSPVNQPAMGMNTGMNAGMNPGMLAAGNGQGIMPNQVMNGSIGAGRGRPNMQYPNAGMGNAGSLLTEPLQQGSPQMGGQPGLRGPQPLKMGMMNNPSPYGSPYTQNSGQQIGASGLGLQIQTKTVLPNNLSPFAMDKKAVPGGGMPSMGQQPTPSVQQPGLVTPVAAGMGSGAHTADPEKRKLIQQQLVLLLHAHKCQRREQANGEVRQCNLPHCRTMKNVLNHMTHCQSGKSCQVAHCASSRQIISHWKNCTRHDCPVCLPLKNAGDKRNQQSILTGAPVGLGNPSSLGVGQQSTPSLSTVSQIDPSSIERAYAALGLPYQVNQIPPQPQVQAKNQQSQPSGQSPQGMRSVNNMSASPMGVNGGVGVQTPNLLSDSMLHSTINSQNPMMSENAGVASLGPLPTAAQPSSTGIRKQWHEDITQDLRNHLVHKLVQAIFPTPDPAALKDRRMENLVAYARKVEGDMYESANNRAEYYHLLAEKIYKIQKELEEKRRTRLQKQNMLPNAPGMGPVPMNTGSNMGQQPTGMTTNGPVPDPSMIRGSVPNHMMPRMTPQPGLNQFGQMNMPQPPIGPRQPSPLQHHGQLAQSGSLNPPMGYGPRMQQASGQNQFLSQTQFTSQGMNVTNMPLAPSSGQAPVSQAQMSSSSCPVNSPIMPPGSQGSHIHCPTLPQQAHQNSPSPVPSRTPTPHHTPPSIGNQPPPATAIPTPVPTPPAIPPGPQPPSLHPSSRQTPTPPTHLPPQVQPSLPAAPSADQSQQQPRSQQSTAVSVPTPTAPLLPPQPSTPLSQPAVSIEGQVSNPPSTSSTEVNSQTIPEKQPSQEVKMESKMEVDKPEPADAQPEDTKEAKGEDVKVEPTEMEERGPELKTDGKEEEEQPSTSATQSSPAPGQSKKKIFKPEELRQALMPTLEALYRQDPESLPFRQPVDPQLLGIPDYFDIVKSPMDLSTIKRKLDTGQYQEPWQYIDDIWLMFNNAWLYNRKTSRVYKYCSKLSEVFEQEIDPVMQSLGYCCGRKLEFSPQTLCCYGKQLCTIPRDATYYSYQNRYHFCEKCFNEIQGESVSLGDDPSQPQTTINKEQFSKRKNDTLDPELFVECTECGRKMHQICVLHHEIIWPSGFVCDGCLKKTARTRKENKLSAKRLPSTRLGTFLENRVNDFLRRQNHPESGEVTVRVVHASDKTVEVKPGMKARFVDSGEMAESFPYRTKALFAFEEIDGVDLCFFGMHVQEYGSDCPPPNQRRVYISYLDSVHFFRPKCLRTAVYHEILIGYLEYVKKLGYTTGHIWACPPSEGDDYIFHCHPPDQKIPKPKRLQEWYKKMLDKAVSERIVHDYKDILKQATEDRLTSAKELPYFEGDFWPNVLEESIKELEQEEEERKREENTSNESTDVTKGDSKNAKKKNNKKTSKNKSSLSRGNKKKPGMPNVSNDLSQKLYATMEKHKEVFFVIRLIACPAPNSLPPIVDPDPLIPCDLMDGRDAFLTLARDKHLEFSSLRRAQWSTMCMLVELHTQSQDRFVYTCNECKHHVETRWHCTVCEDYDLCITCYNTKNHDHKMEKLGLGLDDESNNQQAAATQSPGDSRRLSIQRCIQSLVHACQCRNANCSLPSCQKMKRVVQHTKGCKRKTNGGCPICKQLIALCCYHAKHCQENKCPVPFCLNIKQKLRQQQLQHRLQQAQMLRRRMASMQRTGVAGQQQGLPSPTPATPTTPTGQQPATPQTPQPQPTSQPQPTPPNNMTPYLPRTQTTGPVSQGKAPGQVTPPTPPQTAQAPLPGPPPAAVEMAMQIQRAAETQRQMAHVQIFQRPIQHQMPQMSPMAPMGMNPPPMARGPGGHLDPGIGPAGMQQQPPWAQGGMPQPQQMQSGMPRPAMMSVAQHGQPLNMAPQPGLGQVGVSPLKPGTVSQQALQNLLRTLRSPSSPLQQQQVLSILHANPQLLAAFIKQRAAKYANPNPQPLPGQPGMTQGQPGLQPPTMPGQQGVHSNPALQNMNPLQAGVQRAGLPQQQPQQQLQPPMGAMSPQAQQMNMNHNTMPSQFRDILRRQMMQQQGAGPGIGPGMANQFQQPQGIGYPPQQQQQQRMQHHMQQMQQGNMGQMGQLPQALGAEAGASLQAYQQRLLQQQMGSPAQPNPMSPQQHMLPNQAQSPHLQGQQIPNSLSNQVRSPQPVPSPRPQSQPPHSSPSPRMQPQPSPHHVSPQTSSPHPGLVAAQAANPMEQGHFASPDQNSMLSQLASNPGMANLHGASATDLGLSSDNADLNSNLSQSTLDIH

luciferase activity (Wnt/β-catenin activity) ([1]; Hek293 TCF/LEF luciferase): luciferase activity was decreased | p300/γ-catenin interaction [3]: promotes p300/γ-catenin interaction | CBP/γ-catenin interaction [4]: inhibits CBP/γ-catenin interaction
SMILES: O=C1[C@H](Cc2ccc(O)cc2)N2C(=O)CCN(C(=O)NCc3ccccc3)[C@H]2CN1Cc1cccc2ccccc12 [ICG-001, reference compound]
survivin expression level in survivin-reporter system [2]: significantly decreased in a dose dependent manner

SMILES: CC(=O)c1ccc(NN=C(C(N)=O)C2=NC(C)(C)Cc3ccccc32)cc1 [IQ-1]
mESC pluripotency (previously reported) [5]: maintain long term mESC pluripotency

IC50 ([1]; Homo sapiens, HEK293, STF1.1 Hek-293, 1 hour pre-incubation, 10 mM LiCl 24 hours): < 0.1 µM | binding to p300 (affinity precipitation, p300 immunoblot) ([6]; C2Cl2 lysates, 4 h at 4° C., streptavidin agarose beads): directly binding to p300 | competition of the band precipitated by Bio-249 ([6]; free competitor): strongly competed out
SMILES: COc1cccc(CNC(=O)N2C3CN(Cc4cccc(Cl)c4N(C)C)C(=O)[C@H](Cc4ccc(O)cc4)N3C(=O)CN2C)c1OC (some centres unmarked) [YH249]
IC50 ([2]; Homo sapiens, Survivin-Hek-293, 24 hours, read-out: survivin/luciferase reporter: did not inhibit up to): > 20 µM | CELL#/plate [7, 11]: 5.2 × 10^5 | CFC#/plate [7, 11]: 27 | cell number in each plate vs DMSO ([7]; 4 hours treatment, cells recovered from plate): higher cell number in each plate | lineage negative cell ([8]; DMSO 9%): 17% | LSK cells ([8]; DMSO 52%): 60% | LSKCD34negt cell numbers ([8]; from every 10,000 analyzed cells, DMSO 437): 663 | mESC pluripotency [9]: maintain pluripotency | hESC pluripotency [10]: maintain pluripotency
